Assays:
[1] = tested on: adjuvant-induced rheumatoid arthritis in rats; assay: Adjuvant-induced RA (AIA) model in rats; assay type: in vivo, Male Lewis rats; parameters: % Inhibition of swelling in each time interval relative to negative control: concentration or dose not given beside the values; conditions: for Mean right hind paw volume (ml water displaced): CFA treated paw, acute phase; for Mean left hind paw volume (ml water displaced): CFA untreated paw, delayed phase
Experimental: The ability of compounds of formula I to treat adjuvant-induced rheumatoid arthritis in rats was examined. The AIA model is one thought mainly to involve T cell-mediated mechanisms.
Male Lewis rats weighing 200±10 g were housed in groups of 6 with free access to food and water. 0.1 ml CFA (Mycobacterium tuberculosis 3 mg/ml) was injected into the subplantar region of the right bind paw of each rat on day 1 of the study.
Test substances were first dissolved in NaOH (if required) as explained above then suspended in 2% Tween 80 to a range of concentrations. 10 ml/kg was administered by oral gavage for 21 consecutive days, beginning (on day 1) 1 hour before injection of CFA. 2% Tween 80 was used as a negative control and methotrexate in 2% Tween 80 as a positive control.
Right hind paw volumes were measured by water displacement on day 0, 4 hours after the CFA injection on day 1, and on days 7, 14, and 21. Left hind paw volumes were measured by water displacement on days 0, 1, 7, 14, and 21. […] 30% or more reduction in paw volume relative to the negative control was considered significant anti-inflammatory activity. Body weight was also recorded on days 1, 7, 14, and 21. Symptoms of swelling in the front paws, tail, nose and ears were recorded on day 21.

[2] = tested on: collagen-induced rheumatoid arthritis in mice
[3] = in vivo; cited from earlier work
rheumatoid arthritis = conditions: RA patients; cited from earlier work

## CN(Cc1cnc2nc(N)nc(N)c2n1)c1ccc(C(=O)N[C@@H](CCC(=O)O)C(=O)O)cc1 [MTX, methotrexate]
[1]; day 0, oral gavage
  Mean right hind paw volume (ml water displaced): 1.06 mL
  Mean left hind paw volume (ml water displaced): 1.06 mL
[1]; day 1 (4 hours after CFA), oral gavage
  Mean right hind paw volume (ml water displaced): 1.56 mL
[1]; day 7, oral gavage
  Mean right hind paw volume (ml water displaced): 1.79 mL
  Mean left hind paw volume (ml water displaced): 1.08 mL
[1]; day 14, oral gavage
  Mean right hind paw volume (ml water displaced): 1.48 mL
  Mean left hind paw volume (ml water displaced): 1.10 mL
[1]; day 21, oral gavage
  Mean right hind paw volume (ml water displaced): 1.37 mL
  Mean left hind paw volume (ml water displaced): 1.14 mL
[1]; day 1, oral gavage
  Mean left hind paw volume (ml water displaced): 1.06 mL
[1]; left hind paw (CFA untreated), days 0-14
  % Inhibition of swelling in each time interval relative to negative control: 95%
[1]; left hind paw (CFA untreated), days 0-21
  % Inhibition of swelling in each time interval relative to negative control: 94%
[1]; right hind paw (CFA treated), days 0-1
  % Inhibition of swelling in each time interval relative to negative control: 15%
[1]; right hind paw (CFA treated), days 0-7
  % Inhibition of swelling in each time interval relative to negative control: 34%
[1]; right hind paw (CFA treated), days 0-14
  % Inhibition of swelling in each time interval relative to negative control: 73%
[1]; right hind paw (CFA treated), days 0-21
  % Inhibition of swelling in each time interval relative to negative control: 83%
[2]; mice, intraperitoneal, once daily for 6 weeks
  therapeutic dose as percentage of maximum tolerated dose: twice as high
[2]; mouse, in vivo
  signs of anaemia at the end of the study (red blood cell count, FIG. 3): severe signs of anaemia
[3]
  fraction undergoing fast elimination unchanged after uptake: more than 80%
Rheumatoid arthritis
  patients who do not respond sufficiently well to treatment with methotrexate alone: around 35%

— patent US8247422B2, “Use of condensed pyrimidine derivatives for the treatment of rheumatoid arthritis” (priority 2007, dated 2012)
